In paper PMC12362783 (Advanced Science, 2025):

What was measured:
PARP5B = PARP5B (Homo sapiens, UniProt Q9H2K2); assay: PARP family selectivity; format: biochemical
Protocol: (§1) The PARP activity assay was performed by ChemPartner (Shanghai, China). Each well was precoated with histone (final conc.: 100 ng mL^−1) diluted in PBS buffer (contains 10 mmol L^−1 NaH2PO4 and 150 mmol L^−1 NaCl, pH 7.4) by incubation at 4 °C overnight. […] The reaction was initiated by the addition of 10 µL of PARP (final conc.: 0.007 nM/well) at room temperature for 60 min. Add 20 µL of anti‐Poly/Mono‐ADP Ribose Rabbit mAb. Incubate for 1.5 h at room temperature and wash the plate three times using PBST buffer. Add 20 µL of diluted (1:2000) anti‐rabbit IgG, HRP‐linked Antibody. Incubate for 1 h at room temperature and wash the plate three times using PBST buffer. Add 25 µL Femto‐ECL Substrate A and Femto‐ECL Substrate B (1:1) mix. Immediately read chemiluminescence on Envision (Revvity, USA).

PARP5A = PARP5A (Homo sapiens, UniProt O95271); assay: PARP family selectivity; format: biochemical
Protocol: as §1

MDA‐MB‐468 cells = assay: Cell cycle assay, flow cytometry (PI); format: cell-based; conditions: MDA‐MB‐468, 48 h; A7, B8 0.5 and 1.0 µM, controls 1.0 µM
Protocol: (§2) The cell cycle analysis was performed with cells seeded in 6‐well plates in growth media. The cells were allowed to attach overnight (8 h). The cultures were treated with different tested drugs for 48 h. After treatment, cells were collected and fixed with 70% pre‐cold ethanol in PBS and stored at −20 °C overnight. Then washed the cells with PBS twice, and incubated with 100 µg mL^−1 RNase A at 37 °C for 1 h, stained with propidium iodide for 30 min avoid light at room temperature. The stained cells were analyzed by flow cytometry. The percentages of cells in the G1, S, and G2/M phases were determined. The data were analyzed by FlowJo software (Tree Star, Inc., Ashland, OR).

MDA‐MB‐231 cells = assay: Cell cycle assay, flow cytometry (PI); format: cell-based; conditions: MDA‐MB‐231, 48 h; A7, B8 0.5 and 1.0 µM, controls 1.0 µM
Protocol: as §2

[1] = test system: MDA‐MB‐468 xenograft tumors; assay: Immunohistochemistry staining of xenograft tumors; format: in vivo, mice
Protocol: The isolated tumor tissue was fixed in 4% paraformaldehyde for 24 h, dehydrated, embedded, and sliced. After deparaffinization, Ki67 (GB121141‐50, Servicebio), γH2AX (GB111841‐50, Servicebio), CD8 (GB15068‐50, Servicebio), or Cleaved‐caspase‐3 antibody (CST#9661) were incubated at 4 °C overnight, rinsed three times with PBS, and incubated with the secondary antibody. A DAB substrate solution was applied to the slide sections to reveal the antibody staining color. The tissue slide was dehydrated four times with alcohol. The tissue slides were then cleared three times in xylene and mounted with a mounting solution. The mounted slides could be stored at room temperature indefinitely. The immunohistochemical images were obtained under the microscope (Nikon DS‐Ri1).

Sequence of PARP5A (O95271 whole entry, species assumed): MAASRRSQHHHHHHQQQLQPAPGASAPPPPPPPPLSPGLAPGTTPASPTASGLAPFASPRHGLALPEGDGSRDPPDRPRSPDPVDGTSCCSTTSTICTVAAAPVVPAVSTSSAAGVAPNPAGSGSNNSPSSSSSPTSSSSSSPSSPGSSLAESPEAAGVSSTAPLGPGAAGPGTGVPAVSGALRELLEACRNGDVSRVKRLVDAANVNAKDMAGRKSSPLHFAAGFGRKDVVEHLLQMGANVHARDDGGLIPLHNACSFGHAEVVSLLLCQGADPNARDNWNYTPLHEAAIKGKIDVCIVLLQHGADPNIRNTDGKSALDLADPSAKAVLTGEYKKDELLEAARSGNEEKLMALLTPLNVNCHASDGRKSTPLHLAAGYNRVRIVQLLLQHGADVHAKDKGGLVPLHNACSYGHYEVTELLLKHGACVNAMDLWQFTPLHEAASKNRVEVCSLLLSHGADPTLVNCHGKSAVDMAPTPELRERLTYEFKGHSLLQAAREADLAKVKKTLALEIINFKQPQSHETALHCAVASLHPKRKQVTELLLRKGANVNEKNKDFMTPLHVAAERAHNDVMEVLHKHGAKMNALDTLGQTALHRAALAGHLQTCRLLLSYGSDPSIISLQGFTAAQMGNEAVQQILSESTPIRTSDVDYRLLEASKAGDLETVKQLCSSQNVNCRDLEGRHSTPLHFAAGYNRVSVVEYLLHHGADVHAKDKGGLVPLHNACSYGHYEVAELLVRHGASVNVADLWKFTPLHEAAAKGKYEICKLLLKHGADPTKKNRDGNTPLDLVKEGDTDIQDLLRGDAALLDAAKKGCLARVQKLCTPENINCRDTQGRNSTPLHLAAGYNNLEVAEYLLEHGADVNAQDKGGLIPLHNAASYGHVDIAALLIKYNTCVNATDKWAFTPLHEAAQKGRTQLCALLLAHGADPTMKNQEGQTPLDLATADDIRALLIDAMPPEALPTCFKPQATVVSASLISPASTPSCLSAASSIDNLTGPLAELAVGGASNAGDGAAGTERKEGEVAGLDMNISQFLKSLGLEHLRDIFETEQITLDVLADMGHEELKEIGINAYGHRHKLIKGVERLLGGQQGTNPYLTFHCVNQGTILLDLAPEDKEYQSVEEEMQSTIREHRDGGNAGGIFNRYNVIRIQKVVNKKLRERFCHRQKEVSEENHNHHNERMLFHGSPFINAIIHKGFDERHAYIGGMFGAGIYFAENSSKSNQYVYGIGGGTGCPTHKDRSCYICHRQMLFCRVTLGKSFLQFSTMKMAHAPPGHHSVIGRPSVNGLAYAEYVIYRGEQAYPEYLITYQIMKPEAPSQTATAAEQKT
Sequence of PARP5B (Q9H2K2 whole entry, species assumed): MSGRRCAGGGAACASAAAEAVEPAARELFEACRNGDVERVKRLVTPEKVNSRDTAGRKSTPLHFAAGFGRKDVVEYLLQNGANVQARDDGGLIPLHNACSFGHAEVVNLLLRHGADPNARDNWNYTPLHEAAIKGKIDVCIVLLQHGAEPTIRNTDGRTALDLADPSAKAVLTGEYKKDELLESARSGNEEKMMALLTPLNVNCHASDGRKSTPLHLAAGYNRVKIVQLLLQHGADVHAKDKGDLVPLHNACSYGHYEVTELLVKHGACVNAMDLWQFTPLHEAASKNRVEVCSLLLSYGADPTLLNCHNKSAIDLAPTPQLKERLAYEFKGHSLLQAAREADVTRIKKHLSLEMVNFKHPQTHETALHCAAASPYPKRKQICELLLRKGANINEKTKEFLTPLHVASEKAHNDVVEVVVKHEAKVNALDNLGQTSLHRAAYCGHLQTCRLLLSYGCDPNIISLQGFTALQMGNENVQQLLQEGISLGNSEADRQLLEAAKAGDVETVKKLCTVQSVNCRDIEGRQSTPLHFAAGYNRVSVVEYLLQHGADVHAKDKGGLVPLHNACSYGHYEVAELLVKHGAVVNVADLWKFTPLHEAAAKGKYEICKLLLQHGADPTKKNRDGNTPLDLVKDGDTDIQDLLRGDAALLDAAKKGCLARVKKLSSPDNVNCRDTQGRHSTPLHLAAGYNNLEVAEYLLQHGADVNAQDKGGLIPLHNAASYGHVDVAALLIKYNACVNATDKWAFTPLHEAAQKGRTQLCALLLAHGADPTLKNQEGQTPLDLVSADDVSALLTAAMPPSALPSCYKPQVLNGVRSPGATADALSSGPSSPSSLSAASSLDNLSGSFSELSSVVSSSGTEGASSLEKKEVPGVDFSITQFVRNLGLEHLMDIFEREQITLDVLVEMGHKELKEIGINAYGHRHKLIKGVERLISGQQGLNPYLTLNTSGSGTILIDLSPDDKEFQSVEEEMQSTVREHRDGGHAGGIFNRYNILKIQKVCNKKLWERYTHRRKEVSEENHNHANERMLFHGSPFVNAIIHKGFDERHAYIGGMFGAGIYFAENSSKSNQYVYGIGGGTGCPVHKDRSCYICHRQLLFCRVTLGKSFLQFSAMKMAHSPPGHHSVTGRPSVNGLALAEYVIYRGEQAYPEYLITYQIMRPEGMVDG

For `C[C@@H]1COCCN1c1cc(CNC(=O)c2ccc(C(=O)N3CCN(C(=O)c4cc(Cc5n[nH]c(=O)c6ccccc56)ccc4F)CC3)cc2)nc(-c2ccnc3[nH]ccc23)n1` [Compound B8, (R)‐4‐(4‐(2‐fluoro‐5‐((4‐oxo‐3,4‐dihydrophthalazin‐1‐yl)methyl)benzoyl)piperazine‐1‐carbonyl)‐N‐((6‐(3‐methylmorpholino)‐2‐(1H‐pyrrolo[2,3‐b]pyridin‐4‐yl)pyrimidin‐4‐yl)methyl) benzamide], the IC50 (PARP5B) was 240 nM, the “PARP5B (selectivity over PARP1, fold)” value (PARP5B; fold of PARP1 selectivity over PARP5B) was 631.6 fold and the IC50 (PARP5A) was 116 nM. The “PARP5A (selectivity over PARP1, fold)” value (PARP5A; fold of PARP1 selectivity over PARP5A) was 305 fold, the “effect on cell cycle distribution” value (MDA‐MB‐468 cells) was “markedly increased the proportion of G2/M phase cells” and the “effect on cell cycle distribution” value (MDA‐MB‐231 cells) was “markedly increased the proportion of G2/M phase cells”. The “CD8 expression in tumor tissues (IHC)” value [1] was “increased the levels of CD8 expression” and the “Ki67, γH2AX and cleaved‐caspase 3 expression in tumors (IHC)” value [1] was “decreased Ki67 expression and increased γH2AX and cleaved‐caspase 3 expression”.
